Values joined by “and” are separate entries in the source; they are usually repeats but may differ in a detail not shown here. Identical values can stand only once.

The conditions of data set [1]: human, in vivo.
Protocol: (§2) Blood samples for PK analysis were collected predose and 0.5, 1, 2, 3, 4, 8, 12, and 24 h post dose on days 1 and 3 at the same time as ECG assessments. […] Noncompartmental analysis (WinNonlin™ version 5.2, Pharsight, Sunnyvale, California) was performed to determine the following PK parameters: C max, T max, minimum (trough) plasma concentration over a dosing interval (C min), and AUC calculated using a trapezoidal method. For moxifloxacin, the AUC from time 0 to the last measurable concentration sampling time was calculated (AUC0–tlast).
Data set [2] deals with healthy volunteers. The experiment in a line: Thorough QT/QTc study: QTcF change from baseline on day 3 (12-lead ECG). Type of data set: in vivo, human. An excerpt:
This study was a phase I, randomized, double-blind, placebo- and active-controlled, 3-way, parallel-group study conducted at a single center in the United States and approved by the Arkansas Research Medical Testing, LLC, Institutional Review Board. The design followed the recommendations of the International Conference on Harmonisation of Technical Requirements for Registration of Pharmaceuticals for Human Use (ICH) E14 guideline on “The Clinical Evaluation of QT/QTc Interval Prolongation and Proarrhythmic Potential for Non-Antiarrhythmic Drugs” [19]. As such, the trial included a concurrent positive control group and addressed intrinsic variability by conducting multiple ECGs at baseline and during the study. The study was conducted according to the ethical principles of the Declaration of Helsinki, and written informed consent was obtained from each subject during screening.
The treatment regimen was selected to achieve maximal plasma exposure for QTc evaluation while minimizing the risks of excessive or prolonged exposure in healthy volunteers.
The baseline comparison was from day −1 to day 3 at matched time points.
The following hypothesis was tested to confirm that the study had sufficient assay sensitivity: [drawing 3] [drawing 4] where μmoxi(t) was the mean QTcF change from baseline observed following moxifloxacin 400 mg at time point t. If the null hypothesis was rejected, the study had sufficient sensitivity. The Simes method was used for the protection of an experiment-wise 5% type I error [22, 23]. With the Simes method, the original P values corresponding to 0.5, 1, 2, 3, and 4 h post baseline are ordered increasingly, that is, P 1 ≤ P 2 ≤ P 3 ≤ P 4 ≤ P 5. After the Simes correction, the P values were 5P 1, 5P 2/2, 5P 3/3, 5P 4/4, and P 5 respectively. If any of the 5 adjusted P values were <.05, assay sensitivity was claimed. Only the participants who completed all scheduled doses of study medication from day 1 to day 3 and had at least 1 ECG on day −1 (baseline) and at least 1 ECG on day 3 (time-matched day 3 data for the time-matched analysis) were included in the assay sensitivity test.
Electrocardiogram measurements at each time point were calculated as an average of 3 separate ECG extractions or replicates. (Each extraction was the mean of 3 beats.) If fewer than 3 measurements were available, the available samples were averaged (i.e., a minimum of 1 measure was required). For each subject, the time-matched baseline value was subtracted from the QT/QTc intervals to determine the change from baseline in QT/QTc intervals for that subject. The 2 null hypotheses described above were tested in a linear mixed-effect model with a compound symmetry covariance structure. The model included the baseline measure as covariate and treatment, time, and the treatment-by-time interaction as fixed effects, where time was a categorical variable and subject was a random effect.
The time-matched analysis was conducted on the QTcF change from the time-matched baseline as recommended by the ICH E14 guideline. Although modeling change from the time-matched baseline was the primary analysis, the change from the time-averaged baseline was also analyzed using the same model. For the averaged baseline, each triplicate ECG collection was averaged first, and then the averaged baseline was calculated based on all the averaged triplicate ECG and unscheduled ECGs.
(§1) Standard triplicate 12-lead ECGs were obtained at 9 time points over 24 h at […] and at 2 time points on day 1. Electrocardiogram analysis was performed at a blinded central reading facility (ERT, East Bridgewater, NJ) in digital format, with paper tracings obtained and archived immediately on site. Vital signs were assessed daily. Clinical laboratory parameters were assessed at baseline and at the end of study. Self-reported adverse events were continuously recorded from the first study treatment (placebo, day −1) through the end of study on day 4.

In data set [3] the test system is healthy volunteers. The experiment in a line: Concentration–QT linear random-effects model. Type of data set: in vivo, human. The conditions noted are these: moxifloxacin. An excerpt: Baseline QTcF was included in the model as a covariate. […] This exploratory analysis was applied to both the change from the time-matched baseline and the change from time-averaged baseline.

In data set [4] the test system is healthy volunteers. The experiment in a line: Outlier analysis of QTc and other ECG parameters, ECG morphology. Type of data set: in vivo, human. The note with it: for QTcB >30 ms, time-matched change from baseline, participants: text: 30- to 60-ms category. On the procedure:
Outlier analysis for QTc was also exploratory because this study was not powered to detect individuals with genetic sensitivity to potential QT-prolonging drugs. The nonspecific outlier criterion was a change from baseline in QTc interval of 30–60 ms.
as §1

The subject of data set [5] is healthy volunteers. The experiment in a line: Adverse events and discontinuations. Type of data set: in vivo, human. On the procedure: Electrocardiogram analysis was performed at a blinded central reading facility (ERT, East Bridgewater, NJ) in digital format, with paper tracings obtained and archived immediately on site. Vital signs were assessed daily. Clinical laboratory parameters were assessed at baseline and at the end of study. Self-reported adverse events were continuously recorded from the first study treatment (placebo, day −1) through the end of study on day 4.

The conditions of data set [6]: moxifloxacin; cited from earlier work.
A further data set relates to QTcF interval. The conditions noted are these: cited from earlier work.
Data set [7] is described as follows: Plasma pharmacokinetics, noncompartmental analysis. The conditions noted are these: moxifloxacin 400 mg overencapsulated, day 3.
Protocol: as §2
A further data set concerns QT interval. The note with it: ref 16 (AC220), 17 (MLN518), 18 (sorafenib); cited from earlier work.
Where [8] appears, read: moxifloxacin 400 mg, 1 h post dose on day 3.

On to `CN(C(=O)c1ccccc1)[C@@H]1C[C@H]2O[C@@](C)([C@@H]1O)n1c3ccccc3c3c4c(c5c6ccccc6n2c5c31)C(=O)NC4` [CGP62221], for which the “time of peak concentrations post dose” value in [1] was 3 to 4 h. For the same compound, in [1] (po, 75 mg), the “AUC0-12h, mean (SD)” value is listed as 7848.2 (1579.9) ng * hour/mL and the “AUC0-24h, mean (SD)” value was 36 486.5 (9769.7) ng × hour/mL.

The Cmax is the peak of the concentration-time curve. As a reminder, the Tmax is the time from dosing to the highest level. Turning to `COc1c(N2C[C@@H]3CCCN[C@@H]3C2)c(F)cc2c(=O)c(C(=O)O)cn(C3CC3)c12` [Moxifloxacin, reference compound], in the data set on healthy volunteers [2] (moxifloxacin 400 mg, 1 h post dose), the “upper limit of the 95% CI of QTcF prolongation from time-matched baseline” value was 14.9 ms. Moreover, in the data set with healthy volunteers [2] (setting [8]), the “lower bound of 95% CI, QTcF change from time-averaged baseline compared with placebo” value came to 7.6 ms; the “lower bound of the 1-sided 95% CI of QTcF prolongation from time-matched baseline” value was 6.4 ms and > 5 ms; the “maximum mean QTcF change from time-averaged baseline compared with placebo” value is recorded as 10.2 ms. The “maximum mean QTcF prolongation from time-matched baseline compared with placebo” value with healthy volunteers [2] (moxifloxacin single 400-mg dose, 1 h post dose on day 3) stood at 10.7 ms. For the same compound, the “slope of QT change from baseline with increasing plasma concentration” value in the data set on healthy volunteers [3] (QT) is on record as 4.0. Moreover, the “slope of QTcB change from baseline with increasing plasma concentration” value in the data set on healthy volunteers [3] (QTcB) stood at 2.6. Also, the “slope of QTcF change from baseline with increasing plasma concentration” value in the data set on healthy volunteers [3] (QTcF) worked out at 3.2 ms per μg/mL. Also, in the data set with healthy volunteers [4] (12-lead ECG), the “new U-wave abnormalities” value is given as 1 case and the “new post baseline T-wave abnormalities” value is 4 participants. In addition, in the data set on healthy volunteers [4] (safety set), the “PR increase ≥25% and resultant PR >200 ms, participants” value is on record as 0 no. (%); the “QRS increase ≥25% and resultant QRS >100 ms, participants” value is given as 0 no. (%); the “QTcB >60 ms, time-matched change from baseline, participants” value is 0 no. (%); the “QTcF >30 ms, time-matched change from baseline, participants” value is listed as 0 no. (%). In the data set on healthy volunteers [4] (safety set), the “QTcF >60 ms, time-matched change from baseline, participants” value is 0 no. (%); the “QTcI >30 ms, time-matched change from baseline, participants” value is given as 0 no. (%); the “QTcI >60 ms, time-matched change from baseline, participants” value was 0 no. (%); the “RR decrease ≥25% and resultant RR <600 ms, participants” value was 0 no. (%). Further, in the data set on healthy volunteers [4] (safety set), the “RR increase ≥25% and resultant RR >1,200 ms, participants” value is 0 no. (%); the “QTcB >30 ms, time-matched change from baseline, participants” value is reported as 7 (15.9) no. (%). The “QTcB New >450 ms, participants” value with healthy volunteers [4] (safety set, post baseline, text: between 450 and 480 ms) is listed as 1 (2.3%) no. (%). Moreover, the “QTcB >30 ms, time-matched change from baseline, participants” value in the data set with healthy volunteers [4] (safety set, listed as moxifloxacin) is listed as 7 (15.9%) no. (%). In addition, in the data set with healthy volunteers [5] (randomized set), the “Discontinued, main cause Adverse event(s)” value is reported as 0 (0.0) no. (%) and the “Discontinued, main cause Death” value is on record as 0 (0.0) no. (%). Further, in the data set with healthy volunteers [5] (safety set, all grade 1/2), the Abdominal pain was 0 (0.0) no. (%), the Arthralgia is listed as 0 (0.0) no. (%), the Diarrhea is given as 1 (2.3) no. (%) and the Dizziness is 1 (2.3) no. (%). In the data set with healthy volunteers [5] (safety set, all grade 1/2), the Dry mouth is 0 (0.0) no. (%), the Dysmenorrhea was 0 (0.0) no. (%), the Dyspepsia is 1 (2.3) no. (%) and the Eructation is 0 (0.0) no. (%). Moreover, in the data set with healthy volunteers [5] (safety set, all grade 1/2), the Flatulence was 1 (2.3) no. (%), the Flushing was 0 (0.0) no. (%), the Headache is listed as 4 (9.1) no. (%) and the Hiccups was 0 (0.0) no. (%). For the same compound, in the data set with healthy volunteers [5] (safety set, all grade 1/2), the Hot flushes was 0 (0.0) no. (%), the Nausea is given as 5 (11.4) no. (%), the Pollakiuria was 1 (2.3) no. (%) and the Rash is reported as 1 (2.3) no. (%). In the data set on healthy volunteers [5] (safety set, all grade 1/2), the Salivary hypersecretion is given as 0 (0.0) no. (%), the Sexually transmitted disease is recorded as 0 (0.0) no. (%) and the Vomiting is recorded as 1 (2.3) no. (%). The “Participants with adverse events” value in the data set on healthy volunteers [5] (safety set, all grade 1/2, 4-day evaluation period) was 9 (20.5) no. (%). Moreover, the Tachycardia with healthy volunteers [5] (safety set, grade 1, midostaurin-arm cases occurred during placebo run-in (day −1)) was 0 (0.0) no. (%). In addition, in data set [6], the Cmax previously reported was 2830 ng/mL. For the same compound, the “mean slope estimates, concentration–QTc” value with QTcF interval (5 other thorough QTc studies) was 2.5 ms per μg/mL and 2.4 ms per μg/mL and 3.3 ms per μg/mL and 3.5 ms per μg/mL and 4.3 ms per μg/mL. Besides, in the data set with QTcF interval, the “effect on QTc intervals” value is given as “prolong QTc intervals in a dose-dependent manner”. Also, the “expected effect on the QTcF interval” value with QTcF interval (previous studies) is 8 to 13 ms. This compound also showed a Cmax in [7] (human, plasma, oral, 400 mg, geometric mean) of 2500 ng/mL. The compound also returned a Cmax in data set [7] (human, plasma, oral, 400 mg, mean) of 2540 ng/mL. In data set [7] (human, plasma, oral, 400 mg, median), this compound returned a Cmax of 2460 ng/mL. Further, in data set [7] (human, plasma, oral, 400 mg, Tmax, median), the Tmax was 2.1 h. In addition, the “Cmax, mean” value in data set [7] amounted to 2544 ng/mL.

Turning to `CNC(=O)c1cc(Oc2ccc(NC(=O)Nc3ccc(Cl)c(C(F)(F)F)c3)cc2)ccn1` [sorafenib], the “effect on QT interval in clinical trials” value in the data set on QT interval was “induce prolongation of the QT interval”.

The values are drawn from article PMC3337405 (Cancer Chemotherapy and Pharmacology, 2012).
